Reference: patent US7718781B2, “Hydroxypyridonate and hydroxypyrimidinone chelating agents” (The Regents of the University of California, priority 2001, dated 2010)

Tests used:
[1] = target: human serum albumin (HSA) (Homo sapiens, UniProt P02768); experiment: Binding to HSA by proton relaxation enhancement (PRE) method
Excerpt: Biomolecule affinity measurements are generally measured by art-recognized methods. For example, the non-covalent interaction between HSA and the metal complexes containing hydrophobic groups have been thoroughly investigated using the well-established proton relaxation enhancement (PRE) method (Caravan, P. E. et al., Chem. Rev. 1999, 99, 2293) that allows both the binding parameters (Ka) and the relaxivity enhancement of the (Metal complex)-HSA adduct to be determined. In this method, the water proton relaxation rates of solutions containing the metal complex and increasing concentrations of the serum protein are measured. […]
The longitudinal relaxation rate (R1) of water protons in a […] solution of Gd-TREN-1-Me-3,2-HOPO-TAM-PEG-5000 was measured with increasing concentrations of HSA (FIG. 19) at 20 MHz and 25° C. […]
An objective of synthesizing the Bn and MOB chelates was to investigate their interaction with HSA. The non-covalent interaction between HSA and the Gd complexes was investigated using the well-established proton relaxation enhancement (PRE) method that allows both the binding parameters (KA) and the relaxivity enhancement of the (Gd^3+ complex)-HSA adduct to be determined. In this method, the water proton longitudinal relaxation rates (R1) of solutions containing the Gd complex and increasing concentrations of the serum protein are measured.

[2] = Variable temperature 17O NMR of water transverse relaxation rate (water exchange, q); format: physicochemical
Protocol: The mean residence water lifetime, τm, is generally determined by measuring the transverse ^17O NMR relaxation rate (R2p) at various temperatures. The variable-temperature ^17O NMR measurement is performed using spectrometers which operate at various magnetic field strengths (2.1 and 9.4 T are typically used) equipped with a 5 mm probe. A D2O external lock and solutions containing 2.6% of the ^17O isotope are used. The observed transverse relaxation rates are calculated from the signal width at half-height. […]
A variable temperature ^17O NMR study of the transverse relaxation rate of H2^17O (R2p) of Gd-TREN-1-Me-3,2-HOPO-TAM, Gd-TREN-1-Me-3,2-HOPO-TAM-PEG-2000 and Gd-TREN-1-Me-3,2-HOPO-TAM-PEG-5000 at 2.1 T was carried out. Analysis of the profiles also allows the number of coordinated water molecules, q to be evaluated. […]
The value of τm, was independently obtained by a variable temperature (VT) ^17O NMR measurement of the water nuclear transverse relaxation rate (R2). The data were measured at 2.1 T (90 MHz for the proton and 12 MHz for 170) and pH≈7. The curve was analyzed in terms of the well established equations of Swift-Connick, rearranged in a form suitable for Gd. […]
Variable-temperature ^17O NMR measurements were recorded on a JEOL EX-400 (9.4 T) spectrometer, equipped with a 5 mm probe, by using D20 for external lock of the magnetic field. […]

[3] = Water proton relaxivity (longitudinal relaxation rate, 20 MHz); format: physicochemical
Protocol: The efficacy of a paramagnetic complex as a possible MRI contrast agent depends on its ability to catalyze the nuclear magnetic relaxation rate of solvent protons (Lauffer, R. B., Chem. Rev., 87, 901 (1987); Tweedle, M. F.; Kumar, K. In Magnetic Resonance Imaging (MRI) Contrast Agents; Clarke, M. I., Sadler, P. J., Eds.; Springer: Berlin, Germany, Vol. 2, p. 1 (1999); Koenig et al., Prog. NMR Spectrosc., 22:487 (1990)). This property, which is measured in terms in relaxivity, r1p, is defined as the enhancement of the water proton longitudinal relaxation rate induced by a 1 mML^−1 solution of the paramagnetic compound at a given temperature and magnetic field strength (Aime et al., Chem. Soc. Rev., 27:19 (1998)).
In an exemplary assay, the longitudinal water proton relaxation rate at 20 MHz are measured (typically with a NMR spectrometer operating at 0.5 T) with a reproducibility of the T1 data to ±0.5%. Equipment for the control of temperature (with an accuracy of ±0.1° C.) during these measurements are employed.
Water proton relaxation measurements were carried out at 20 MHz with a Stelar Spinmaster Spectrometer (Mede, Pv, Italy) on 0.5-2 mM solutions of the Gd(III) complex. Spin-lattice relaxation times T1 were measured by the standard inversion recovery method with typical 90° pulse width of […], 16 experiments of 4 scans. The reproducibility of the data is ±1%. The temperature was controlled by a Stelar VTC-91 air-flow heater equipped with copper-constantan thermocouple (uncertainty ±0.1° C). The 1/T1 nuclear magnetic relaxation dispersion (NMRD) profiles of water protons were measured from 0.00024 to 1.2 T (corresponding to the range 0.01-50 MHz of proton Larmor frequencies) at 15, 25 and 39° C. using 1.5 mM solutions of the complex on the field-cycling Koenig-Brown relaxometer of the University of Torino (Italy). The temperature was controlled by circulating freon from an external bath and measured by a thermometer inserted into the freon close to the sample. The reproducibilities of the measured T1 values were estimated to be ±2%. […]

Sequence of human serum albumin (HSA) (P02768 25-609): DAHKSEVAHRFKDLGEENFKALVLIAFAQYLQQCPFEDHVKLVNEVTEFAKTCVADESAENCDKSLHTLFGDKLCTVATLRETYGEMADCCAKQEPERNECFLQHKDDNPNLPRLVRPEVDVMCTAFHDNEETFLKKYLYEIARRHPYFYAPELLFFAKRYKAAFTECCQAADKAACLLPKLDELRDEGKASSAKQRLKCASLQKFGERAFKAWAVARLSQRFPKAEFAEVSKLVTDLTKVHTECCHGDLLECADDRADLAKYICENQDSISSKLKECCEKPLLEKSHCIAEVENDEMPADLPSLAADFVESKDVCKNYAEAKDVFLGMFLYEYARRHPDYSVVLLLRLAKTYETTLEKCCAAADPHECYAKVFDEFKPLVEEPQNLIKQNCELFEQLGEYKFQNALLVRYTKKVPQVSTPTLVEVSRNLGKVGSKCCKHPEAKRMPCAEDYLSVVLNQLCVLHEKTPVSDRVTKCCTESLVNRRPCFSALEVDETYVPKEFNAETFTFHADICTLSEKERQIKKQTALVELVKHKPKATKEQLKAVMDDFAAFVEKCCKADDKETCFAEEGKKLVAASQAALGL

KA (HSA)/M^−1 ([1]; HSA): <100 M⁻¹
r1p^b/mM^−1s^−1 (HSA) ([1]; relaxivity of HSA-bound complex): 4.3 mM⁻¹ s⁻¹
SMILES: O=C([O-])CN(CCN(CC(=O)[O-])CC(=O)O)CCN(CC(=O)[O-])CC(=O)O.[Gd+3] [Gd-DTPA]
τM/ns [2]: 303 ns
r1p/mM^−1s^−1 (20 MHz) [3]: 4.3 mM⁻¹ s⁻¹
